Test: Viscosity of crude blended with dimethyl sulfide (rheometer)
Type: physicochemical
Description: The quality of dimethyl sulfide as an oil recovery agent based on the crude oil viscosity lowering properties of dimethyl sulfide was evalulated. Three crude oils having widely disparate viscosity characteristics—an African Waxy crude, a Middle Eastern asphaltic crude, and a Canadian asphaltic crude—were blended with dimethyl sulfide.
A control sample of each crude was prepared containing no dimethyl sulfide, and samples of each crude were prepared and blended with dimethyl sulfide to prepare crude samples containing increasing concentrations of dimethyl sulfide. Each sample of each of the crudes was heated to 60° C. to dissolve any waxes therein and to permit weighing of a homogeneous liquid, weighed, allowed to cool overnight, then blended with a selected quantity of dimethyl sulfide. The samples of the crude/dimethyl sulfide blend were then heated to 60° C. and mixed to ensure homogeneous blending of the dimethyl sulfide in the samples. Absolute (dynamic) viscosity measurements of each of the samples were taken using a rheometer and closed cup sensor assembly. Viscosity measurements of each of the samples of the West African waxy crude and the Middle Eastern asphaltic crude were taken at 20° C., 40° C., 60° C., 80° C., and then again at 20° C. after cooling from 80° C., where the second measurement at 20° C. is taken to measure the viscosity without the presence of waxes since wax formation occurs slowly enough to permit viscosity measurement at 20° C. without the presence of wax. Viscosity measurements of each of the samples of the Canadian asphaltic crude were taken at 5° C., 10° C., 20° C., 40° C., 60° C., 80° C., The measured viscosities for each of the crudes are shown in Tables 4, 5, and 6 below.

Viscosity (DMS 1.21 wt. %, 20° C.): 125.8 mPa s
Viscosity (DMS 1.21 wt. %, 20° C. after cooling from 80° C.): 100.1 mPa s
Viscosity (DMS 1.21 wt. %, 40° C.): 30.94 mPa s
Viscosity (DMS 1.21 wt. %, 60° C.): 14.66 mPa s
Viscosity (DMS 1.21 wt. %, 80° C.): 8.92 mPa s
Viscosity (DMS 1.3 wt. %, 20° C.): 1733.8 mPa s
Viscosity (DMS 1.3 wt. %, 20° C. after cooling from 80° C.): 1624.8 mPa s
Viscosity (DMS 1.3 wt. %, 40° C.): 334.5 mPa s
Viscosity (DMS 1.3 wt. %, 60° C.): 106.7 mPa s
Viscosity (DMS 1.3 wt. %, 80° C.): 44.6 mPa s
Viscosity (DMS 2.48 wt. %, 20° C.): 122.3 mPa s
Viscosity (DMS 2.48 wt. %, 20° C. after cooling from 80° C.): 89.23 mPa s
Viscosity (DMS 2.48 wt. %, 40° C.): 30.53 mPa s
Viscosity (DMS 2.48 wt. %, 60° C.): 13.66 mPa s
Viscosity (DMS 2.48 wt. %, 80° C.): 8.44 mPa s
Viscosity (DMS 2.6 wt. %, 20° C.): 1026.6 mPa s
Viscosity (DMS 2.6 wt. %, 20° C. after cooling from 80° C.): 881.1 mPa s
Viscosity (DMS 2.6 wt. %, 40° C.): 219.9 mPa s
Viscosity (DMS 2.6 wt. %, 60° C.): 76.5 mPa s
Viscosity (DMS 2.6 wt. %, 80° C.): 34.3 mPa s
Viscosity (DMS 5.03 wt. %, 20° C.): 78.37 mPa s
Viscosity (DMS 5.03 wt. %, 20° C. after cooling from 80° C.): 55.21 mPa s
Viscosity (DMS 5.03 wt. %, 40° C.): 20.24 mPa s
Viscosity (DMS 5.03 wt. %, 60° C.): 10.45 mPa s
Viscosity (DMS 5.03 wt. %, 80° C.): 6.55 mPa s
Viscosity (DMS 5.3 wt. %, 20° C.): 496.5 mPa s
Viscosity (DMS 5.3 wt. %, 20° C. after cooling from 80° C.): 503.5 mPa s
Viscosity (DMS 5.3 wt. %, 40° C.): 134.2 mPa s
Viscosity (DMS 5.3 wt. %, 60° C.): 52.2 mPa s
Viscosity (DMS 5.3 wt. %, 80° C.): 25.5 mPa s
Viscosity (DMS 7.6 wt. %, 20° C.): 288.0 mPa s
Viscosity (DMS 7.60 wt. %, 20° C.): 60.92 mPa s
Viscosity (DMS 7.6 wt. %, 20° C. after cooling from 80° C.): 290.0 mPa s
Viscosity (DMS 7.60 wt. %, 20° C. after cooling from 80° C.): 40.89 mPa s
Viscosity (DMS 7.6 wt. %, 40° C.): 89.4 mPa s
Viscosity (DMS 7.60 wt. %, 40° C.): 17.08 mPa s
Viscosity (DMS 7.6 wt. %, 60° C.): 37.4 mPa s
Viscosity (DMS 7.60 wt. %, 60° C.): 9.29 mPa s
Viscosity (DMS 7.6 wt. %, 80° C.): 19.3 mPa s
Viscosity (DMS 7.60 wt. %, 80° C.): 6.09 mPa s
Viscosity (DMS 8.01 wt. %, 20° C.): 5799 mPa s
Viscosity (DMS 8.01 wt. %, 40° C.): 982 mPa s
Viscosity (DMS 8.01 wt. %, 60° C.): 275 mPa s
Viscosity (DMS 8.01 wt. %, 80° C.): 106 mPa s
Viscosity (DMS 9.80 wt. %, 20° C.): 2760 mPa s
Viscosity (DMS 9.80 wt. %, 40° C.): 571 mPa s
Viscosity (DMS 9.80 wt. %, 60° C.): 173 mPa s
Viscosity (DMS 9.80 wt. %, 80° C.): 73 mPa s
Viscosity (DMS 9.95 wt. %, 20° C.): 44.70 mPa s
Viscosity (DMS 9.95 wt. %, 20° C. after cooling from 80° C.): 30.61 mPa s
Viscosity (DMS 9.95 wt. %, 40° C.): 13.03 mPa s
Viscosity (DMS 9.95 wt. %, 60° C.): 7.58 mPa s
Viscosity (DMS 9.95 wt. %, 80° C.): 5.04 mPa s
Viscosity (DMS 10.1 wt. %, 20° C.): 150.0 mPa s
Viscosity (DMS 10.1 wt. %, 20° C. after cooling from 80° C.): 150.5 mPa s
Viscosity (DMS 10.1 wt. %, 40° C.): 52.4 mPa s
Viscosity (DMS 10.1 wt. %, 60° C.): 24.5 mPa s
Viscosity (DMS 10.1 wt. %, 80° C.): 13.5 mPa s
Viscosity (DMS 14.81 wt. %, 5° C.): 1794 mPa s
Viscosity (DMS 14.81 wt. %, 10° C.): 1155 mPa s
Viscosity (DMS 14.81 wt. %, 20° C.): 548 mPa s
Viscosity (DMS 14.81 wt. %, 40° C.): 159 mPa s
Viscosity (DMS 14.81 wt. %, 60° C.): 64 mPa s
Viscosity (DMS 14.81 wt. %, 80° C.): 32 mPa s
Viscosity (DMS 15.13 wt. %, 20° C.): 23.96 mPa s
Viscosity (DMS 15.13 wt. %, 20° C. after cooling from 80° C.): 17.64 mPa s
Viscosity (DMS 15.13 wt. %, 40° C.): 8.32 mPa s
Viscosity (DMS 15.13 wt. %, 60° C.): 4.97 mPa s
Viscosity (DMS 15.13 wt. %, 80° C.): 3.38 mPa s
Viscosity (DMS 15.2 wt. %, 20° C.): 59.4 mPa s
Viscosity (DMS 15.2 wt. %, 20° C. after cooling from 80° C.): 60.7 mPa s
Viscosity (DMS 15.2 wt. %, 40° C.): 25.2 mPa s
Viscosity (DMS 15.2 wt. %, 60° C.): 13.6 mPa s
Viscosity (DMS 15.2 wt. %, 80° C.): 8.2 mPa s
Viscosity (DMS 19.30 wt. %, 20° C.): 15.26 mPa s
Viscosity (DMS 19.30 wt. %, 20° C. after cooling from 80° C.): 12.06 mPa s
Viscosity (DMS 19.30 wt. %, 40° C.): 6.25 mPa s
Viscosity (DMS 19.30 wt. %, 60° C.): 4.05 mPa s
Viscosity (DMS 19.30 wt. %, 80° C.): 2.92 mPa s
Viscosity (DMS 19.78 wt. %, 20° C.): 188 mPa s
Viscosity (DMS 19.78 wt. %, 40° C.): 69 mPa s
Viscosity (DMS 19.78 wt. %, 60° C.): 33 mPa s
Viscosity (DMS 19.78 wt. %, 80° C.): 19 mPa s
Viscosity (DMS 20.1 wt. %, 20° C.): 29.9 mPa s
Viscosity (DMS 20.1 wt. %, 20° C. after cooling from 80° C.): 31.0 mPa s
Viscosity (DMS 20.1 wt. %, 40° C.): 14.8 mPa s
Viscosity (DMS 20.1 wt. %, 60° C.): 8.7 mPa s
Viscosity (DMS 20.1 wt. %, 80° C.): 5.7 mPa s
Viscosity (DMS 29.88 wt. %, 5° C.): 113 mPa s
Viscosity (DMS 29.88 wt. %, 10° C.): 81 mPa s
Viscosity (DMS 29.88 wt. %, 20° C.): 51 mPa s
Viscosity (DMS 29.88 wt. %, 40° C.): 22 mPa s
Viscosity (DMS 29.88 wt. %, 60° C.): 13 mPa s
Viscosity (DMS 29.88 wt. %, 80° C.): 8 mPa s
Viscosity (DMS 39.61 wt. %, 5° C.): 23 mPa s
Viscosity (DMS 39.61 wt. %, 10° C.): 20 mPa s
Viscosity (DMS 39.61 wt. %, 20° C.): 14 mPa s
Viscosity (DMS 39.61 wt. %, 40° C.): 8 mPa s
Viscosity (DMS 39.61 wt. %, 60° C.): 6 mPa s
Viscosity (DMS 39.61 wt. %, 80° C.): 4 mPa s
Structure (SMILES): CSC [Dimethyl Sulfide, dimethyl sulfide]
lowering the viscosity of a crude oil (three crudes, wide range of initial viscosities): effective for significantly lowering the viscosity
